Laboratory results taken from patent US9040663B2, “Melanocortin receptor-specific peptides” (AstraZeneca AB, priority 2009, dated 2015).
Where two headings read alike, the source gives them in different places. Positions of bridges follow the written chain, without caps; N, C: chain ends. Non-standard residues stand in square brackets, D forms with d. Residues, ends and D or L forms follow the SMILES beside them. dPhe(4-CN) = N#Cc1ccc(C[C@@H](N)C(=O)O)cc1; Orn = NCCC[C@H](N)C(=O)O

What was measured:
[1] = molecular target: T1, hMC4-R (Homo sapiens (Human), UniProt P32245); assay: Competitive inhibition binding assay using [I125]-NDP-α-MSH, hMC4-R; conditions: membranes of HEK-293 cells expressing recombinant hMC4-R, read-out: MC4-R Ki
T1 sequence (P32245 whole entry): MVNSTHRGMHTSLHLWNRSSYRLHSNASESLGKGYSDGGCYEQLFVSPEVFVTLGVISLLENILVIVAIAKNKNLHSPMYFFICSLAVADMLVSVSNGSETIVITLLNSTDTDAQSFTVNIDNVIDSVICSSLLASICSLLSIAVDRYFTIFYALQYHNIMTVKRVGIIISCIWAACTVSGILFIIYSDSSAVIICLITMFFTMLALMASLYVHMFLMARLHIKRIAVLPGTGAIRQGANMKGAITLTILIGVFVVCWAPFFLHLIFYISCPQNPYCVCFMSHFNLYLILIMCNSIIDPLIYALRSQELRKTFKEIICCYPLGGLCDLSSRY

[2] = molecular target: MC1-R; assay: Competitive inhibition binding assay using [I125]-NDP-α-MSH, MC1-R; conditions: membranes of B-16 mouse melanoma cells (endogenous MC1-R), in some instances HEK-293 hMC1-R
Method: 7.1 Competitive Inhibition Assay using [I^125]-NDP-α-MSH.
A competitive inhibition binding assay was performed for exemplified peptides according to the invention using membrane homogenates prepared from HEK-293 cells that express recombinant hMC4-R, hMC3-R, or hMC5-R, and from B-16 mouse melanoma cells (containing endogenous MC1-R). In some instances, HEK-293 cells that express recombinant hMC1-R were employed. Assays were performed in 96 well GF/B Millipore multiscreen filtration plates (MAFB NOB10) pre-coated with 0.5% bovine serum albumin (Fraction V). Membrane homogenates were incubated with 0.2 nM (for hMC4-R) 0.4 nM (for MC3-R and MC5-R) or 0.1 nM (for mouse B16 MC1-R or hMC1-R) [I^125]-NDP-α-MSH (Perkin Elmer) and increasing concentrations of test peptides of the present invention in buffer containing 25 mM HEPES buffer (pH 7.5) with 100 mM NaCl, 2 mM CaCl2, 2 mM MgCl2, 0.3 mM 1,10-phenanthroline, and 0.2% bovine serum albumin. After incubation for 60 minutes at 37° C., the assay mixture was filtered and the membranes washed three times with ice-cold buffer. Filters were dried and counted in a gamma counter for bound radioactivity. […] Maximal specific binding (100%) was defined as the difference in radioactivity (cpm) bound to cell membranes in the absence and presence of 1 μM NDP-α-MSH. […] Each assay was conducted in triplicate and the actual mean values are described, with results less than 0% reported as 0%. Ki values for test peptides of the present invention were determined using Graph-Pad Prism® curve-fitting software.

[3] = molecular target: T1, hMC4-R; assay: High and low density hMC4-R functional assay (cAMP, HEK293-T-REx-MC4-R cells); assay type: cell-based; conditions: for Emax: NDP-α-MSH = 100%, read-out: Intrinsic Activity (%)
[4] = 0.1 ng/mL Doxycycline (low density hMC4-R system)
[5] = 10 ng/mL Doxycycline (high density hMC4-R system)

Ki [1]	Ki [2]	EC50 [3, 4]	Emax [3, 4]	EC50 [3, 5]	Emax [3, 5]	SMILES
3 nM	1 nM	0.34 nM	91%	0.045 nM	96%	CC(=O)N[C@@H](CCCNC(=N)N)C(=O)N[C@H]1CCC(=O)NCCC[C@@H](C(N)=O)NC(=O)[C@H](Cc2c[nH]c3ccccc23)NC(=O)[C@H](CCCNC(=N)N)NC(=O)[C@@H](Cc2ccccc2Cl)NC(=O)[C@H](CCN)NC1=O [Example 1, Ac-Arg-cyclo(Glu-Dab-D-Phe(2-Cl)-Arg-Trp-Orn)-NH2]
0.08 nM	0.3 nM	0.07 nM	28%	0.16 nM	100%	CC(=O)N[C@@H](CCCNC(=N)N)C(=O)N[C@H]1CCC(=O)NCCC[C@@H](C(N)=O)NC(=O)[C@H](Cc2c[nH]c3ccccc23)NC(=O)[C@H](CCCNC(=N)N)NC(=O)[C@@H](Cc2ccc(Cl)cc2)NC(=O)[C@H](CCN)NC1=O [Example 3, Ac-Arg-cyclo(Glu-Dab-D-Phe(4-Cl)-Arg-Trp-Orn)-NH2]
0.055 nM	0.5 nM	–	11%	0.245 nM	100%	CC(=O)N[C@@H](CCCNC(=N)N)C(=O)N[C@H]1CCC(=O)NCCC[C@@H](C(N)=O)NC(=O)[C@H](Cc2c[nH]c3ccccc23)NC(=O)[C@H](CCCNC(=N)N)NC(=O)[C@@H](Cc2ccc(Cl)cc2Cl)NC(=O)[C@H](CCN)NC1=O [Example 4, Ac-Arg-cyclo(Glu-Dab-D-Phe(2,4-diCl)-Arg-Trp-Orn)-NH2]
0.055 nM	0.2 nM	–	5%	0.38 nM	92%	CC(=O)N[C@@H](CCCNC(=N)N)C(=O)N[C@H]1CCC(=O)NCCC[C@@H](C(N)=O)NC(=O)[C@H](Cc2c[nH]c3ccccc23)NC(=O)[C@H](CCCNC(=N)N)NC(=O)[C@@H](Cc2ccc(Cl)c(Cl)c2)NC(=O)[C@H](CCN)NC1=O [Example 5, Ac-Arg-cyclo(Glu-Dab-D-Phe(3,4-diCl)-Arg-Trp-Orn)-NH2]
33 nM	43 nM	37 nM	29%	2 nM	100%	CC(=O)N[C@@H](CCCNC(=N)N)C(=O)N[C@H]1CCC(=O)NCCC[C@@H](C(N)=O)NC(=O)[C@H](Cc2c[nH]c3ccccc23)NC(=O)[C@H](CCCNC(=N)N)NC(=O)[C@@H](Cc2cccc(C#N)c2)NC(=O)[C@H](CCN)NC1=O [Example 6, Ac-Arg-cyclo(Glu-Dab-D-Phe(3-CN)-Arg-Trp-Orn)-NH2]
2 nM	2 nM	0.45 nM	77%	0.17 nM	94%	CC(=O)N[C@@H](CCCNC(=N)N)C(=O)N[C@H]1CCC(=O)NCCC[C@@H](C(N)=O)NC(=O)[C@H](Cc2c[nH]c3ccccc23)NC(=O)[C@H](CCCNC(=N)N)NC(=O)[C@@H](Cc2cccc(F)c2)NC(=O)[C@H](CCN)NC1=O [Example 10, Ac-Arg-cyclo(Glu-Dab-D-Phe(3-F)-Arg-Trp-Orn)-NH2]
0.25 nM	0.5 nM	0.065 nM	83%	0.06 nM	90%	CC(=O)N[C@@H](CCCNC(=N)N)C(=O)N[C@H]1CCC(=O)NCCC[C@@H](C(N)=O)NC(=O)[C@H](Cc2c[nH]c3ccccc23)NC(=O)[C@H](CCCNC(=N)N)NC(=O)[C@@H](Cc2ccc(F)cc2)NC(=O)[C@H](CCN)NC1=O [Example 11, Ac-Arg-cyclo(Glu-Dab-D-Phe(4-F)-Arg-Trp-Orn)-NH2]
0.6 nM	3 nM	0.125 nM	85%	0.06 nM	96%	CC(=O)N[C@@H](CCCNC(=N)N)C(=O)N[C@H]1CCC(=O)NCCC[C@@H](C(N)=O)NC(=O)[C@H](Cc2c[nH]c3ccccc23)NC(=O)[C@H](CCCNC(=N)N)NC(=O)[C@@H](Cc2ccccc2C(F)(F)F)NC(=O)[C@H](CCN)NC1=O [Example 13, Ac-Arg-cyclo(Glu-Dab-D-Phe(2-CF3)-Arg-Trp-Orn)-NH2]
0.25 nM	0.15 nM	0.15 nM	28%	0.16 nM	97%	COc1ccc(C[C@H]2NC(=O)[C@H](CCN)NC(=O)[C@@H](NC(=O)[C@H](CCCNC(=N)N)NC(C)=O)CCC(=O)NCCC[C@@H](C(N)=O)NC(=O)[C@H](Cc3c[nH]c4ccccc34)NC(=O)[C@H](CCCNC(=N)N)NC2=O)cc1 [Example 16, Ac-Arg-cyclo(Glu-Dab-D-Phe(4-OMe)-Arg-Trp-Orn)-NH2]
8 nM	300 nM	7 nM	33%	–	98%	CC(=O)N[C@@H](CCCNC(=N)N)C(=O)N[C@H]1CCC(=O)NCCC[C@@H](C(N)=O)NC(=O)[C@H](Cc2c[nH]c3ccccc23)NC(=O)[C@H](CCCNC(=N)N)NC(=O)[C@@H](Cc2ccccc2Cl)NC(=O)[C@H](CO)NC1=O [Example 31, Ac-Arg-cyclo(Glu-Ser-D-Phe(2-Cl)-Arg-Trp-Orn)-NH2]
–	138 nM	5 nM	67%	0.25 nM	100%	CC(=O)N[C@@H](CCCNC(=N)N)C(=O)N[C@H]1CCC(=O)NCCC[C@@H](C(N)=O)NC(=O)[C@H](Cc2c[nH]c3ccccc23)NC(=O)[C@H](CCCNC(=N)N)NC(=O)[C@@H](Cc2ccccc2F)NC(=O)[C@H](CO)NC1=O [Example 58, Ac-Arg-cyclo(Glu-Ser-D-Phe(2-F)-Arg-Trp-Orn)-NH2]
–	3970 nM	9 nM	36%	–	96%	CC(=O)N[C@@H](CCCNC(=N)N)C(=O)N[C@H]1CCC(=O)NCCC[C@@H](C(=O)O)NC(=O)[C@H](Cc2c[nH]c3ccccc23)NC(=O)[C@H](CCCNC(=N)N)NC(=O)[C@@H](Cc2ccc(C#N)cc2)NC(=O)[C@H](CCC(N)=O)NC1=O [Example 86, Ac-Arg-cyclo(Glu-Gln-D-Phe(4-CN)-Arg-Trp-Orn)-OH]
–	10000 nM	–	3%	–	77%	CC(=O)N[C@@H](CCCNC(=N)N)C(=O)N[C@H]1CCC(=O)NCCC[C@@H](C(N)=O)NC(=O)[C@H](Cc2c[nH]c3ccccc23)NC(=O)[C@H](CCCNC(=N)N)NC(=O)[C@@H](Cc2ccc(C#N)cc2)NC(=O)[C@H](CC(=O)O)NC1=O [Example 106, Ac-Arg-cyclo(Glu-Asp-D-Phe(4-CN)-Arg-Trp-Orn)-NH2] (Ac-RED[dPhe(4-CN)]RW[Orn]-NH2; lactam 2-7)
–	10000 nM	–	4%	–	64%	CC(=O)N[C@@H](CCCNC(=N)N)C(=O)N[C@H]1CCC(=O)NCCC[C@@H](C(=O)O)NC(=O)[C@H](Cc2c[nH]c3ccccc23)NC(=O)[C@H](CCCNC(=N)N)NC(=O)[C@@H](Cc2ccc(C#N)cc2)NC(=O)[C@H](CC(=O)O)NC1=O [Example 107, Ac-Arg-cyclo(Glu-Asp-D-Phe(4-CN)-Arg-Trp-Orn)-OH] (Ac-RED[dPhe(4-CN)]RW[Orn]-OH; lactam 2-7)
–	10000 nM	–	3%	9 nM	59%	CC(=O)N[C@@H](CCCNC(=N)N)C(=O)N[C@H]1CCC(=O)NCCC[C@@H](C(N)=O)NC(=O)[C@H](Cc2c[nH]c3ccccc23)NC(=O)[C@H](CCCNC(=N)N)NC(=O)[C@@H](Cc2ccc(C#N)cc2)NC(=O)[C@H](CCC(=O)O)NC1=O [Example 108, Ac-Arg-cyclo(Glu-Glu-D-Phe(4-CN)-Arg-Trp-Orn)-NH2] (Ac-REE[dPhe(4-CN)]RW[Orn]-NH2; lactam 2-7)
7 nM	–	–	80%	0.065 nM	100%	CC(=O)N[C@@H](CCCNC(=N)N)C(=O)N[C@H]1CCCNC(=O)CC[C@@H](C(N)=O)NC(=O)[C@H](Cc2c[nH]c3ccccc23)NC(=O)[C@H](CCCNC(=N)N)NC(=O)[C@@H](Cc2ccccc2Cl)NC(=O)[C@H](CC(N)=O)NC1=O [Example 113, Ac-Arg-cyclo(Orn-Asn-D-Phe(2-Cl)-Arg-Trp-Glu)-NH2]
7 nM	–	–	77%	0.095 nM	104%	CC(=O)N[C@@H](CCCNC(=N)N)C(=O)N[C@H]1CCC(=O)NCCC[C@@H](C(N)=O)NC(=O)[C@H](Cc2c[nH]c3ccccc23)NC(=O)[C@H](CCCNC(=N)N)NC(=O)[C@@H](Cc2ccccc2C(F)(F)F)NC(=O)[C@H](CC(N)=O)NC1=O [Example 116, Ac-Arg-cyclo(Glu-Asn-D-Phe(2-CF3)-Arg-Trp-Orn)-NH2]
5 nM	–	1 nM	50%	–	112%	CC(=O)N[C@@H](CCCNC(=N)N)C(=O)N[C@H]1CCCNC(=O)CC[C@@H](C(N)=O)NC(=O)[C@H](Cc2c[nH]c3ccccc23)NC(=O)[C@H](CCCNC(=N)N)NC(=O)[C@@H](Cc2ccccc2C(F)(F)F)NC(=O)[C@H](CC(N)=O)NC1=O [Example 117, Ac-Arg-cyclo(Orn-Asn-D-Phe(2-CF3)-Arg-Trp-Glu)-NH2]
